From patent US20250235460A1, “COMBINATION THERAPY USING GLUCOSE-DEPENDENT INSULINOTROPIC POLYPEPTIDE RECEPTOR ANTAGONIST COMPOUNDS AND GLP-1 RECEPTOR AGONIST COMPOUNDS” (Pfizer Inc., priority 2024, published 2025)

Experiments:
human GLP-1R [1] = target: human GLP-1R (Homo sapiens, UniProt P43220, G168S); assay: CHO GLP-1R Clone H6 cAMP HTRF agonist assay (Assay 1, high receptor density); type: cell-based; details: for EC50: geometric mean; for Emax: CHO GLP-1R clone H6, arithmetic mean, relative to saturating GLP-1 (1 μM), read-out: Assay 1 Emax (%)
Procedure, shortened: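 From replicate determinations, mean EC50 (geometric) and mean Emax (arithmetic) were derived and expressed to two significant figures.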

human GLP-1R [2] = target: human GLP-1R (Homo sapiens, UniProt P43220, L260F); assay: CHO GLP-1R Clone C6 cAMP HTRF agonist assay (Assay 2, low receptor density); type: cell-based; details: for EC50: geometric mean
Description: In Table 5 and Table 6, assay data are presented to two (2) significant figures as the geometric mean (EC50s) and arithmetic mean (Emax) based on the number of replicates listed (Number). A blank cell means there was no data for that Example or the Emax was not calculated.

[3] = CHO GLP-1R clone C6, arithmetic mean, relative to saturating GLP-1 (1 μM)

Sequence of human GLP-1R (Homo sapiens, UniProt P43220, G168S) (P43220 24-463 G168S): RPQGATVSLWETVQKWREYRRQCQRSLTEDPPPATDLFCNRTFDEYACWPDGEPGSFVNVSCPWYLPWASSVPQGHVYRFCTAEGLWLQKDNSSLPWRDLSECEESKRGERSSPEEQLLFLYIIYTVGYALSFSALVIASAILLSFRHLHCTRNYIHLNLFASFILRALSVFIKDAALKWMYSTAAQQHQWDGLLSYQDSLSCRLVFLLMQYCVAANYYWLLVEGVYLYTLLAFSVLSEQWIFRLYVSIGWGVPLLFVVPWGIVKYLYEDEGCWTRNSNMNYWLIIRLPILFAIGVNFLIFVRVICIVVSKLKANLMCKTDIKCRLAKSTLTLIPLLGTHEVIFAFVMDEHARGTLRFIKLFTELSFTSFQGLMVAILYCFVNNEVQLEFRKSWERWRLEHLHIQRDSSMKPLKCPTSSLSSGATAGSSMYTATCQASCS
Sequence of human GLP-1R (Homo sapiens, UniProt P43220, L260F) (P43220 24-463 L260F): as the sequence (P43220 24-463 G168S) above, with S145G, L237F counted along it

| SMILES | EC50 (human GLP-1R [1]; CHO GLP-1R clone H6, cAMP HTRF) | Emax (human GLP-1R [1]) | EC50 (human GLP-1R [2]; CHO GLP-1R clone C6, cAMP HTRF) | Emax (human GLP-1R [2]; [3]) | Assay 2 Emax (%) (human GLP-1R [2]; [3]) | EC50 (human GLP-1R [1]; CHO GLP-1R clone, cAMP HTRF) | EC50 (human GLP-1R [2]; CHO GLP-1R clone, low receptor density, cAMP HTRF) |
| --- | --- | --- | --- | --- | --- | --- | --- |
| COCCn1c(CN2CCN(c3cccc(OCc4ccc(Cl)cc4F)n3)C[C@@H]2CO)nc2ccc(C(=O)O)cc21 [Compound 354B, 2-{[(2R)-4-{6-[(4-chloro-2-fluorobenzyl)oxy]pyridin-2-yl}-2-(hydroxymethyl)piperazin-1-yl]methyl}-1-(2-methoxyethyl)-1H-benzimidazole-6-carboxylic acid] | 94 nM | 78% | 1500 nM | 69% | – | – | – |
| N#Cc1ccc(COc2cccc(C3CCN(Cc4nc5ccc(C(=O)O)cc5n4CC4CCOC4)CC3)n2)c(F)c1 (centres unmarked) [Compound 363B, 2-[(4-{6-[(4-cyano-2-fluorobenzyl)oxy]pyridin-2-yl}piperidin-1-yl)methyl]-1-(tetrahydrofuran-3-ylmethyl)-1H-benzimidazole-6-carboxylic acid] | – | 65% | – | 71% | – | – | – |
| Cn1ccnc1Cn1c(CN2CCC(c3cccc(OCc4ccc(Cl)cc4F)n3)CC2)nc2ccc(C(=O)O)cc21 [Compound 256B, 2-[(4-{6-[(4-chloro-2-fluorobenzyl)oxy]pyridin-2-yl}piperidin-1-yl)methyl]-1-[(1-methyl-1H-imidazol-2-yl)methyl]-1H-benzimidazole-6-carboxylic acid] | 3.4 nM | 79% | 53 nM | 68% | – | – | – |
| Cc1nnc(CCn2c(CN3CCC(c4cccc(OCc5ccc(Cl)cc5F)n4)CC3)nc3ccc(C(=O)O)cc32)o1 [Compound 253B, 2-[(4-{6-[(4-chloro-2-fluorobenzyl)oxy]pyridin-2-yl}piperidin-1-yl)methyl]-1-[2-(5-methyl-1,3,4-oxadiazol-2-yl)ethyl]-1H-benzimidazole-6-carboxylic acid] | 2 nM | 84% | 20 nM | 87% | – | – | – |
| O=C(O)c1ccc2nc(CN3CCC(c4cccc(OCc5ccc(Cl)cc5F)n4)CC3)n(CCN3CCCC3=O)c2c1 [Compound 239B, 2-[(4-{6-[(4-chloro-2-fluorobenzyl)oxy]pyridin-2-yl}piperidin-1-yl)methyl]-1-[2-(2-oxopyrrolidin-1-yl)ethyl]-1H-benzimidazole-6-carboxylic acid] | 1.2 nM | 84% | 24 nM | 98% | – | – | – |
| COCCN1CCCC(Cn2c(CN3CCC(c4cccc(OCc5ccc(Cl)cc5F)n4)CC3)nc3ccc(C(=O)O)cc32)C1 (centres unmarked) [Compound 288B, 2-[(4-{6-[(4-chloro-2-fluorobenzyl)oxy]pyridin-2-yl}piperidin-1-yl)methyl]-1-{[1-(2-methoxyethyl)piperidin-3-yl]methyl}-1H-benzimidazole-6-carboxylic acid] | 30 nM | 77% | 360 nM | 89% | – | – | – |
| O=C(O)c1cc2c(cn1)nc(CN1CCC(c3cccc(OCc4ccc(Cl)cc4F)n3)CC1)n2C[C@@H]1CCO1 [Compound 203B, 2-[(4-{6-[(4-chloro-2-fluorobenzyl)oxy]pyridin-2-yl}piperidin-1-yl)methyl]-1-[(2S)-oxetan-2-ylmethyl]-1H-imidazo[4,5-c]pyridine-6-carboxylic acid] | > 15000 nM | 98% | > 20000 nM | – | – | – | – |
| C[C@H]1CN(c2cccc(OCc3ccc(C#N)cc3F)n2)CCN1Cc1nc2ccc(C(=O)O)cc2n1C[C@@H]1CCO1 [Compound 115B, 2-{[(2S)-4-{6-[(4-cyano-2-fluorobenzyl)oxy]pyridin-2-yl}-2-methylpiperazin-1-yl]methyl}-1-[(2S)-oxetan-2-ylmethyl]-1H-benzimidazole-6-carboxylic acid] | 0.95 nM | 92% | 17 nM | 120% | – | – | – |
| Cn1cnc(Cn2c(CN3CCC(c4cccc(OCc5ccc(Cl)cc5F)n4)CC3)nc3ccc(C(=O)O)cc32)c1 [Compound 255B, 2-[(4-{6-[(4-chloro-2-fluorobenzyl)oxy]pyridin-2-yl}piperidin-1-yl)methyl]-1-[(1-methyl-1H-imidazol-4-yl)methyl]-1H-benzimidazole-6-carboxylic acid] | 190 nM | 62% | 5800 nM | 85% | – | – | – |
| CC1CN(c2cccc(OCc3ccc(Cl)cc3F)n2)CCN1Cc1nc2ccc(C(=O)O)cc2n1Cc1cocn1 (stereo in doubt) [Compound 240B, 2-{[(2S)-4-{6-[(4-chloro-2-fluorobenzyl)oxy]pyridin-2-yl}-2-methylpiperazin-1-yl]methyl}-1-(1,3-oxazol-4-ylmethyl)-1H-benzimidazole-6-carboxylic acid] | 0.5 nM | 78% | 16 nM | 86% | – | – | – |
| N#Cc1ccc(COc2cccc(N3CCN(Cc4nc5ccc(C(=O)O)nc5n4C[C@@H]4CCO4)CC3)n2)c(F)c1 [Compound 123B, 2-[(4-{6-[(4-cyano-2-fluorobenzyl)oxy]pyridin-2-yl}piperazin-1-yl)methyl]-3-[(2S)-oxetan-2-ylmethyl]-3H-imidazo[4,5-b]pyridine-5-carboxylic acid] | 2.4 nM | 87% | 45 nM | 95% | – | – | – |

Other lines, results leading:

| EC50 (human GLP-1R [1]; CHO GLP-1R clone H6, cAMP HTRF) | Emax (human GLP-1R [1]) | EC50 (human GLP-1R [2]; CHO GLP-1R clone C6, cAMP HTRF) | Emax (human GLP-1R [2]; [3]) | Assay 2 Emax (%) (human GLP-1R [2]; [3]) | EC50 (human GLP-1R [1]; CHO GLP-1R clone, cAMP HTRF) | EC50 (human GLP-1R [2]; CHO GLP-1R clone, low receptor density, cAMP HTRF) | SMILES |
| --- | --- | --- | --- | --- | --- | --- | --- |
| 44 nM | 72% | 490 nM | 98% | – | – | – | O=C(O)c1ccc2nc(CN3CCC(c4cccc(OCc5ccc(Cl)cc5F)n4)CC3)n(Cc3cn[nH]c3)c2c1 [Compound 290B, 2-[(4-{6-[(4-chloro-2-fluorobenzyl)oxy]pyridin-2-yl}piperidin-1-yl)methyl]-1-(1H-pyrazol-4-ylmethyl)-1H-benzimidazole-6-carboxylic acid] |
| 120 nM | 93% | 1300 nM | 96% | – | – | – | O=C(O)c1ccc2nc(CN3CCC(c4cccc(OCc5ccc(Cl)cc5F)n4)CC3)n(Cc3nnc[nH]3)c2c1 [Compound 300B, 2-[(4-{6-[(4-chloro-2-fluorobenzyl)oxy]pyridin-2-yl}piperidin-1-yl)methyl]-1-(4H-1,2,4-triazol-3-ylmethyl)-1H-benzimidazole-6-carboxylic acid] |
| 7 nM | 59% | 190 nM | 80% | – | – | – | Cc1nc2nc(CN3CCC(c4cccc(OCc5ccc(Cl)cc5F)n4)CC3)n(C)c2cc1C(=O)O [Compound 209B, 2-[(4-{6-[(4-chloro-2-fluorobenzyl)oxy]pyridin-2-yl}piperidin-1-yl)methyl]-1,5-dimethyl-1H-imidazo[4,5-b]pyridine-6-carboxylic acid] |
| 0.33 nM | 82% | 13 nM | 110% | – | – | – | COCCn1c(CN2CCC(c3cccc(OCc4c(F)cc(Cl)cc4F)n3)CC2)nc2ccc(C(=O)O)cc21 [Compound 220B, 2-((4-(6-((4-chloro-2,6-difluorobenzyl)oxy)pyridin-2-yl)piperidin-1-yl)methyl)-1-(2-methoxyethyl)-1H-benzo[d]imidazole-6-carboxylic acid] |
| 54 nM | 81% | 2100 nM | 100% | – | – | – | COCCn1c(CN2CCN(c3cccc(OCc4ccc(Cl)cc4F)n3)CC2C(F)(F)F)nc2ccc(C(=O)O)cc21 (centres unmarked) [Compound 348B, 2-((4-(6-((4-Chloro-2-fluorobenzyl)oxy)pyridin-2-yl)-2-(trifluoromethyl)piperazin-1-yl)methyl)-1-(2-methoxyethyl)-1H-benzo[d]imidazole-6-carboxylic acid] |
| – | 100% | – | – | 120% | – | – | C[C@H]1CN(c2cccc(OCc3ccc(C#N)cc3)n2)CCN1Cc1nc2ccc(C(=O)O)cc2n1C[C@@H]1CCO1 [Compound 261B, 2-{[(2S)-4-{6-[(4-cyanobenzyl)oxy]pyridin-2-yl}-2-methylpiperazin-1-yl]methyl}-1-[(2S)-oxetan-2-ylmethyl]-1H-benzimidazole-6-carboxylic acid] |
| 5.7 nM | 78% | 130 nM | 94% | – | – | – | COCCn1c(CN2CCC(c3cccc(OCc4ccc(Cl)cc4F)n3)CC2)nc2ncc(C(=O)O)nc21 [Compound 207B, 2-[(4-{6-[(4-chloro-2-fluorobenzyl)oxy]pyridin-2-yl}piperidin-1-yl)methyl]-1-(2-methoxyethyl)-1H-imidazo[4,5-b]pyrazine-6-carboxylic acid] |
| – | – | – | – | – | 0.079 nM | 1.1 nM | CCn1cncc1Cn1c(CN2CCC(c3cccc4c3OC(C)(c3ccc(Cl)cc3F)O4)CC2)nc2ccc(C(=O)O)cc21 (single isomer, unassigned; ent-1) [Compound 21B, Ammonium 2-({4-[2-(4-chloro-2-fluorophenyl)-2-methyl-1,3-benzodioxol-4-yl]piperidin-1-yl}methyl)-1-[(1-ethyl-1H-imidazol-5-yl)methyl]-1H-benzimidazole-6-carboxylate, ENT-1] |
| 110 nM | 71% | 3000 nM | 92% | – | – | – | CCn1cncc1Cn1c(CN2CCC(c3cccc(OCc4ccc(F)cc4F)n3)CC2)nc2ccc(C(=O)O)cc21 [Compound 150B, 2-[(4-{6-[(2,4-difluorobenzyl)oxy]pyridin-2-yl}piperidin-1-yl)methyl]-1-[(1-ethyl-1H-imidazol-5-yl)methyl]-1H-benzimidazole-6-carboxylic acid] |
| 50 nM | 81% | 870 nM | 83% | – | – | – | COCCn1c(CN2CCC(c3cccc(OCc4ccc(C#N)cc4)n3)CC2)nc2cc(F)c(C(=O)O)cc21 [Compound 211B, 2-[(4-{6-[(4-cyanobenzyl)oxy]pyridin-2-yl}piperidin-1-yl)methyl]-5-fluoro-1-(2-methoxyethyl)-1H-benzimidazole-6-carboxylic acid] |
